Test results reported in patent US20120157471A1, “BENZIMIDAZOLE DERIVATIVES” (PFIZER INC., priority 2009, published 2012).

Columns and labels:
Gli-Luc/MEF cells (Smo) = experiment: Gli-Luc/MEF assay (Shh-stimulated luciferase reporter under the Gli response element); format: cell-based, mouse; details: Mus musculus, MEF, 48 h
How it was run: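 IC50 derived from luminescence (Bright-Glo) after 48 h at 37° C, 5% CO2, with compound at […] (3-fold dilutions) added together with mouse Shh at 2 μg/mL final. Cells: MEFs from Gli-Luc transgenic mice.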

[1] = molecular target: T1, human Smo (amino acids 181-787) (Homo sapiens, UniProt Q99835); experiment: Smo radioligand competition binding assay (displacement of 3H-PF-03451358 from HEK293 membranes); details: for inhibition at 0.05 µM: 0.05 μM test compound, displacement of 3H-PF-03451358, read-out: SMO % inh. @ 0.05 μM; for IC50: radioligand competition binding
T1 construct: expressed in transfected cells; membrane preparation
T1 sequence (Q99835 181-787): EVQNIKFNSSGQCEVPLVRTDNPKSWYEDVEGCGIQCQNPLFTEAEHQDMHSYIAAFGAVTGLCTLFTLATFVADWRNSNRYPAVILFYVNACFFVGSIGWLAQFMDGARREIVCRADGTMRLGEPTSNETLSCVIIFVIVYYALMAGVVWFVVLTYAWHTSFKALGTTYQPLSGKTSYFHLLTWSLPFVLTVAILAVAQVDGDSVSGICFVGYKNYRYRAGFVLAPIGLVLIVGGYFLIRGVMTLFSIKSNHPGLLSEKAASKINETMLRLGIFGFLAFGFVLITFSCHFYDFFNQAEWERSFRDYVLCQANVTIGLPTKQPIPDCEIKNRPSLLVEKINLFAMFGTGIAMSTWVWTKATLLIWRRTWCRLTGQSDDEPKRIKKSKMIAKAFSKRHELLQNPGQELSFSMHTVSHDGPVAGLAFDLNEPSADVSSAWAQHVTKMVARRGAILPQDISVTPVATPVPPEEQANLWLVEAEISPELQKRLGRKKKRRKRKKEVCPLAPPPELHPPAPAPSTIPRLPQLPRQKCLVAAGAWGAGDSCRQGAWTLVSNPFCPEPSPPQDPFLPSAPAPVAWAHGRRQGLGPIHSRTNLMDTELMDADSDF
How it was run: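 Displacement of 3 nM tritiated PF-03451358 measured by filtration and scintillation counting after 2 h at room temperature, using 40 μg/well HEK293 membranes bearing cell-surface Smo 181-787, pH 7.5 buffer. Specific binding defined against 30 μM unlabelled ligand; IC50 via variable-slope sigmoidal fit.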

SMILES	IC50 (Gli-Luc/MEF cells (Smo)) [nM]	inhibition at 0.05 µM [1] [%]	IC50 [1] [nM]
Cn1c(-c2cc(N3CCc4[nH]cnc4C3)ncc2Cl)nc2ccccc21 [Example A-107, 5-[5-chloro-4-(1-methyl-1H-benzimidazol-2-yl)pyridin-2-yl]-4,5,6,7-tetrahydro-1H-imidazo[4,5-c]pyridine]	37	77	123
Cn1c(-c2cc(N3CCc4[nH]ncc4C3)ncc2Cl)nc2ccccc21 [Example A-173, 5-[5-chloro-4-(1-methyl-1H-benzimidazol-2-yl)pyridin-2-yl]-4,5,6,7-tetrahydro-1H-pyrazolo[4,3-c]pyridine]	24	83	108
Cn1c(-c2cc(N3CCN(c4ccc(C#N)cn4)CC3)ncc2Cl)nc2ccccc21 [Example A-189, 6-{4-[5-chloro-4-(1-methyl-1H-benzimidazol-2-yl)pyridin-2-yl]piperazin-1-yl}nicotinonitrile]	0.79	99	11
CC(=O)N(C)C1CCN(c2cc(-c3nc4ccccc4n3C)c(Cl)cn2)C1 (stereo not drawn) [Example A-183, N-{1-[5-chloro-4-(1-methyl-1H-benzimidazol-2-yl)pyridin-2-yl]pyrrolidin-3-yl}-N-methylacetamide]	65	89	81
CC(=O)N1[C@@H]2CC[C@H]1CN(c1cc(-c3nc4ccccc4n3C)c(Cl)cn1)C2 [Example A-187, 2-{2-[(1R,5S)-8-acetyl-3,8-diazabicyclo[3.2.1]oct-3-yl]-5-chloropyridin-4-yl}-1-methyl-1H-benzimidazole]	10	90	27
Cn1c(-c2cc(N3CCC(C(=O)N4CCOCC4)CC3)ncc2Cl)nc2ccccc21 [Example A-80, 2-{5-chloro-2-[4-(morpholin-4-ylcarbonyl)piperidin-1-yl]pyridin-4-yl}-1-methyl-1H-benzimidazole]	8	92	45
COC(=O)N1CCCN(c2cc(-c3nc4ccccc4n3C)ccn2)CC1 [Example A-156, methyl 4-[4-(1-methyl-1H-benzimidazol-2-yl)pyridin-2-yl]-1,4-diazepane-1-carboxylate]	11	95	23
CN(C1CCN(c2cc(-c3nc4ccccc4n3C)c(F)cn2)CC1)S(C)(=O)=O [Example D-10, N-{1-[5-fluoro-4-(1-methyl-1H-benzimidazol-2-yl)pyridin-2-yl]piperidin-4-yl}-N-methylmethanesulfonamlde]	4	102	7
COC(=O)NC1CCN(c2cc(-c3nc4ccccc4n3C)c(Cl)cn2)C1 (stereo not drawn) [Example A-152, methyl {1-[5-chloro-4-(1-methyl-1H-benzimidazol-2-yl)pyridin-2-yl]pyrrolidin-3-yl}carbamate]	21	87	69
CCNC(=O)NC1CN(c2cc(-c3nc4ccccc4n3C)c(Cl)cn2)C1 [Example A-148, 1-{1-[5-chloro-4-(1-methyl-1H-benzimidazol-2-yl)pyridin-2-yl]azetidin-3-yl}-3-ethylurea]	9	95	21
Cn1c(-c2ccnc(N3CCS(=O)(=O)CC3)c2)nc2ccccc21 [Example A-11, 2-[2-(1,1-dioxidothiomorpholin-4-yl)pyridin-4-yl]-1-methyl-1H-benzimidazole]	275	52	486
CCn1nnnc1C1CN(c2cc(-c3nc4ccccc4n3C)c(Cl)cn2)CCO1 (stereo not drawn) [Example A-71, 2-{5-chloro-2-[2-(1-ethyl-1H-tetrazol-5-yl)morpholin-4-yl]pyridin-4-yl}-1-methyl-1H-benzimidazole]	10	94	18
Cn1c(-c2cc(N3CC(NS(C)(=O)=O)C3)ncc2Cl)nc2ccccc21 [Example A-41, N-{1-[5-chloro-4-(1-methyl-1H-benzimidazol-2-yl)pyridin-2-yl]azetidin-3-yl}methanesulfonamide]	4	98	7
CC(=O)N1CCCN(c2cc(-c3nc4ccccc4n3C)ccn2)CC1 [Example A-154, 2-[2-(4-acetyl-1,4-diazepan-1-yl)pyridin-4-yl]-1-methyl-1H-benzimidazole]	20	90	33
CC(=O)N1CCN(c2ccc(Cl)c(-c3nc4ccccc4n3C)n2)CC1 [Example B-2, 2-[6-(4-acetylpiperazin-1-yl)-3-chloropyridin-2-yl]-1-methyl-1H-benzimidazole]	32	95	18
Cn1c(-c2ccnc(N3CCN(S(C)(=O)=O)CC3)c2)nc2ccccc21 [Example A-21, 1-methyl-2-{2-[4-(methylsulfonyl)piperazin-1-yl]pyridin-4-yl}-1H-benzimidazole]	90	78	152
Cn1c(-c2cc(N3CCC(CS(C)(=O)=O)CC3)ncc2Cl)nc2ccccc21 [Example A-51, 2-(5-chloro-2-{4-[(methylsulfonyl)methyl]piperidin-1-yl}pyridin-4-yl)-1-methyl-1H-benzimidazole]	7	99	6
CC(=O)N1CCN(c2cc(-c3nc4ccccc4[nH]3)c(Cl)cn2)CC1 [Example A-215, 2-[2-(4-acetylpiperazin-1-yl)-5-chloropyridin-4-yl]-1H-benzimidazole]	63	79	189
Cn1c(-c2cc(N3CCC(S(N)(=O)=O)CC3)ncc2Cl)nc2ccccc21 [Example A-66, 1-[5-chloro-4-(1-methyl-1H-benzimidazol-2-yl)pyridin-2-yl]piperidine-4-sulfonamide]	5	94	14
Cc1noc(C2CN(c3cc(-c4nc5ccccc5n4C)c(Cl)cn3)CCO2)n1 (stereo not drawn) [Example A-64, 2-{5-chloro-2-[2-(3-methyl-1,2,4-oxadiazol-5-yl)morpholin-4-yl]pyridin-4-yl}-1-methyl-1H-benzimidazole]	7	95	28
Cn1c(-c2cc(N3CCN(C(=O)c4ncn[nH]4)CC3)ncc2Cl)nc2ccccc21 [Example A-56, 2-{5-chloro-2-[4-(1H-1,2,4-triazol-3-ylcarbonyl)piperazin-1-yl]pyridin-4-yl}-1-methyl-1H-benzimidazole]	9	98	21
CC(=O)NC1CCN(c2cc(-c3nc4ccccc4n3C)ccn2)CC1 [Example A-16, N-{1-[4-(1-methyl-1H-benzimidazol-2-yl)pyridin-2-yl]piperidin-4-yl}acetamide]	65	81	102
COC(=O)N(C)C1CCN(c2cc(-c3nc4ccccc4n3C)c(Cl)cn2)C1 (stereo not drawn) [Example A-178, methyl {1-[5-chloro-4-(1-methyl-1H-benzimidazol-2-yl)pyridin-2-yl]pyrrolidin-3-yl}methylcarbamate]	17	92	43
Cn1c(-c2cc(N3CCC(N4CCNC(=O)CC4)CC3)ncc2Cl)nc2ccccc21 [Example A-91, 1-{1-[5-chloro-4-(1-methyl-1H-benzimidazol-2-yl)pyridin-2-yl]piperidin-4-yl}-1,4-diazepan-5-one]	16	88	55
Cc1ccc(N2CCC(NS(C)(=O)=O)CC2)nc1-c1nc2ccccc2n1C [Example B-13, N-{1-[5-methyl-6-(1-methyl-1H-benzimidazol-2-yl)pyridin-2-yl]piperidin-4-yl}methanesulfonamide]	8.2	98	11
Cn1c(-c2cc(N3CCC4(CC3)CNC(=O)O4)ncc2Cl)nc2ccccc21 [Example A-198, 8-[5-chloro-4-(1-methyl-1H-benzimidazol-2-yl)pyridin-2-yl]-1-oxa-3,8-diazaspiro[4.5]decan-2-one]	7	87	9
CNC(=O)NC1CCN(c2cc(-c3nc4ccccc4n3C)c(Cl)cn2)C1 (stereo not drawn) [Example A-176, 1-{1-[5-chloro-4-(1-methyl-1H-benzimidazol-2-yl)pyridin-2-yl]pyrrolidin-3-yl}-3-methylurea]	22	82	84
CC(=O)N1CCCN(c2cc(-c3nc4ccccc4n3C)c(Cl)cn2)CC1 [Example A-50, 2-[2-(4-acetyl-1,4-diazepan-1-yl)-5-chloropyridin-4-yl]-1-methyl-1H-benzimidazole]	4	100	7
Cn1c(-c2cc(N3CCC(CS(C)(=O)=O)CC3)ncc2Cl)nc2cccnc21 [Example A-216, 2-(5-chloro-2-{4-[(methylsulfonyl)methyl]piperidin-1-yl}pyridin-4-yl)-3-methyl-3H-imidazo[4,5-b]pyridine]	7	98	10
Cc1cnc(N2CCN(S(C)(=O)=O)CC2)cc1-c1nc2ccccc2n1C [Example E-3, 1-methyl-2-{5-methyl-2-[4-(methylsulfonyl)piperazin-1-yl]pyridin-4-yl}-1H-benzimidazole]	38.1	97	33
